Here are results for six compounds from PMC5024008 (American Journal of Transplantation, 2015).

Each structure is given as a SMILES string.

A short description of data set [1]: Effect of a single dose of cyclosporine on DAA steady-state pharmacokinetics. Format: in vivo, human (healthy volunteers). Particulars: for change in pharmacokinetic parameters: by cyclosporine and tacrolimus, steady-state 3D regimen.
The conditions of data set [2]: ABT-450 200 mg and 250 mg for 12 to 24 weeks; HCV-infected patients; cited from earlier work.
Data set [3] is classed as in vivo, human (healthy volunteers).

As to `COc1c(-c2ccc3cc(NS(C)(=O)=O)ccc3c2)cc(-n2ccc(=O)[nH]c2=O)cc1C(C)(C)CO` [Dasabuvir M1], in data set [1], the “change in pharmacokinetic parameters” value is reported as ≤ 34%.

For the compound `COC(=O)N[C@H](C(=O)N1CCC[C@H]1C(=O)Nc1ccc([C@@H]2CC[C@@H](c3ccc(NC(=O)[C@@H]4CCCN4C(=O)[C@@H](NC(=O)OC)C(C)C)cc3)N2c2ccc(C(C)(C)C)cc2)cc1)C(C)C` [Ombitasvir, ombitasvir], the “change in steady-state exposures (Cmax and AUC)” value in data set [1] (in the presence of cyclosporine or tacrolimus vs absence) is ≤ 15%.

For `Cc1cnc(C(=O)N[C@H]2CCCCC/C=C\[C@@H]3C[C@@]3(C(=O)NS(=O)(=O)C3CC3)NC(=O)[C@@H]3C[C@@H](Oc4nc5ccccc5c5ccccc45)CN3C2=O)cn1` [ABT-450], the safety and tolerability result in data set [2] was “safe and well tolerated”.

`COc1c(-c2ccc3cc(NS(C)(=O)=O)ccc3c2)cc(-n2ccc(=O)[nH]c2=O)cc1C(C)(C)C` [Dasabuvir, dasabuvir]: the “change in pharmacokinetic parameters” value in data set [1] is recorded as ≤ 34%.

`C=CC[C@@H]1/C=C(\C)C[C@H](C)C[C@H](OC)[C@H]2O[C@@](O)(C(=O)C(=O)N3CCCC[C@H]3C(=O)O[C@H](/C(C)=C/[C@@H]3CC[C@@H](O)[C@H](OC)C3)[C@H](C)[C@@H](O)CC1=O)[C@H](C)C[C@@H]2OC` [tacrolimus]: in data set [3] (human, whole blood, oral, 2 mg), the AUC(0-inf) was 118 ng·h/mL, the peak level (Cmax) was 11 ng/mL, the Tmax was found to be 1.8 h and the concentration at 12 h came to 1.6 ng/mL. For the same compound, in data set [3] (human, whole blood, oral, 2 mg), the concentration at 24 h turned out to be 1.1 ng/mL. The “delay in Tmax” value in data set [3] (in the presence of the 3D regimen at steady state vs tacrolimus alone) came to 3.2 h. Also, the “dose-normalized C24 with 3D relative to dose-normalized C12 alone” value in data set [3] (tacrolimus with steady-state 3D regimen vs tacrolimus alone) was 11 fold.

In the case of `CC(C)c1nc(CN(C)C(=O)N[C@H](C(=O)N[C@@H](Cc2ccccc2)C[C@H](O)[C@H](Cc2ccccc2)NC(=O)OCc2cncs2)C(C)C)cs1` [Ritonavir, ritonavir], in data set [1], the “change in pharmacokinetic parameters” value is recorded as ≤ 34%.

For orientation: AUC(0-inf) means the area under the concentration-time curve extrapolated to infinity. Read a high AUC(0-inf) as high exposure. Usually Cmax stands for the highest concentration seen after dosing. In general, Tmax refers to the time at which the peak concentration occurs.
